# Reference: patent publication US20050009924A1 (priority 2003, published 2005)
# Experiments:
# [1] = system: human hepatoma G2 cells; test: Cytotoxicity assay (XTT colorimetric), Hep G2; format: cell-based; conditions: Homo sapiens, HepG2; 48 h of drug exposure
# [2] = system: transcriptional activity of hTERT; test: SEAP reporter assay of hTERT expression, PhTERT-SEAP (hTERT-BJ1); format: cell-based, human; conditions: Homo sapiens, hTERT-BJ1, read-out: Relative SEAP activity (%)
# Procedure, shortened: (§1)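 Read-out: rate of absorbance rise at 405 nm from p-nitrophenyl phosphate (12 mM final) hydrolysis by secreted alkaline phosphatase in heat-treated (65° C, 10 min) culture medium. Drugs at varying amounts were applied for 24 h after a 24 h pre-culture at 37° C.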
# [3] = MTT relative viability, PhTERT-SEAP (H1299) cells; conditions: human
# Procedure: The tetrazolium reagent (MTT; 3-(4,5-di-methylthiazol)-2,5-diphenyl tetrazolium bromide, USB) was designed to yield a colored formazan upon metabolic reduction by viable cells. Approximately […] cells were plated onto each well of a 96-well plate and incubated in 5% CO2 at 37° C. for 24 h. To assess the in vitro cytotoxicity, each compound was dissolved in DMSO and prepared immediately before the experiments and was diluted into the complete medium before addition to cell cultures. Test compounds were then added to the culture medium for designated various concentrations. After 48 h, an amount of 25 μL of MTT was added to each well, and the samples were incubated at 37° C. for 4 h. A 100 μL solution of lysis buffer containing 20% SDS and 50% N,N-dimethylformamide was added to each well and incubated at 37° C. for another 16 h. The absorbency at 550 nm was measured using an ELISA reader.
# Non small lung cancer cells H1299 (telomerase positive) were grown in RPMI 1640 media supplemented with 10% fetal bovine serum, 100 units/mL penicillin and 100 mg/mL streptomycin in a humidified atmosphere with 5% CO2 at 37° C. The hTERT immortalized hTERT-BJ1 (BD Biosciences Clontech)^39 were grown in DMEM media supplemented with 10% fetal calf serum, 100 units/mL penicillin and 100 mg/mL streptomycin, 1 mM sodium pyruvate, and 4 mM I-arginine in a humidified atmosphere with 5% CO2 at 37° C. Culture media were changed every 3 days. […] The stable clones derived from H1299 or hTERT-BJ1 were cultured using conditions that are similar to their parental cells.
# [4] = system: rat glioma C6 cells; test: Cytotoxicity assay (XTT colorimetric), C6 cells; format: cell-based; conditions: Rattus norvegicus, C6; 48 h of drug exposure
# [5] = system: transcriptional activity of hTERT; test: SEAP reporter assay of hTERT expression, PhTERT-SEAP (H1299); format: cell-based, human
# Procedure, shortened: as §1
# [6] = system: iron-induced lipid peroxidation in rat brain homogenates; test: Iron-induced lipid peroxidation in rat brain homogenates; conditions: 10 mM; for Inhibition of LP(10 mM): mean percent inhibition (Table 3); for LP (%) (10 mM): relative percentage of inhibition (Table 1)
# [7] = MTT relative viability, PhTERT-SEAP (hTERT-BJ1) cells; conditions: human
# [8] = system: hepatitis B virus transfected hepatoma cell lines, HepG 2.2.15 cells; test: Cytotoxicity assay, 2.2.15 cells; format: cell-based, human; conditions: Homo sapiens, HepG2.2.15; 48 h of drug exposure
# [9] = Homo sapiens, NCI-H1299, 1.9 μM, H1299, read-out: Relative SEAP activity (%)
# [10] = Homo sapiens, NCI-H1299, 19 μM, H1299, read-out: Relative SEAP activity (%)
# [11] = Homo sapiens, NCI-H1299, H1299, read-out: Relative SEAP activity (%)
# [12] = hTERT-BJ1 cells, stable PhTERT-SEAP reporter clone
smiles,measurement,setting,value
O=C(Oc1cccc2c1C(=O)c1cccc(OC(=O)c3ccccc3Cl)c1C2=O)c1ccccc1Cl,IC50,[1],0.04 ± 0.01 µM
same,activity at 1.9 µM,[2],120 ± 10.5%
same,activity at 19 µM,[2],116 ± 3.7%
same,activity at 190 µM,[2],97 ± 10.8%
same,"viability at 48 h, 1.9 µM",[3],74 ± 5.3%
same,"viability at 48 h, 19 µM",[3],34 ± 3.4%
same,"viability at 48 h, 190 µM",[3],30 ± 1.4%
same,IC50,[4],40.7 ± 4.7 µM
same,activity at 1.9 µM,[5]; [9],93 ± 4.4%
same,activity at 19 µM,[5]; [10],101 ± 4.9%
same,activity at 190 µM,[5]; [11],97 ± 5.3%
same,Inhibition of LP(10 mM),[6],5 ± 0.5%
same,"viability at 48 h, 1.9 µM",[7]; [12],107 ± 5.5%
same,"viability at 48 h, 19 µM",[7]; [12],92 ± 4.3%
same,"viability at 48 h, 190 µM",[7]; [12],40 ± 4%
O=C1c2cccc(SCC(O)CO)c2C(=O)c2cccc(SCC(O)CO)c21 (stereo not shown),IC50,[1],34.3 ± 1.8 µM
same,activity at 2.4 µM,[2]; 2.4 μM,144 ± 16.9%
same,activity at 24 µM,[2]; 24 μM,136 ± 10%
same,activity at 240 µM,[2]; 240 μM,142 ± 9.1%
same,"viability at 48 h, 2.4 µM",[3],102 ± 6.2%
same,"viability at 48 h, 24 µM",[3],103 ± 4.2%
same,"viability at 48 h, 240 µM",[3],83 ± 18.2%
same,IC50,[4],38.5 ± 1.5 µM
same,activity at 2.4 µM,"[5]; Homo sapiens, NCI-H1299, 2.4 μM, H1299, read-out: Relative SEAP activity (%)",105 ± 21.6%
same,activity at 24 µM,"[5]; Homo sapiens, NCI-H1299, 24 μM, H1299, read-out: Relative SEAP activity (%)",90 ± 5.7%
same,activity at 240 µM,"[5]; Homo sapiens, NCI-H1299, 240 μM, H1299, read-out: Relative SEAP activity (%)",81 ± 6.1%
same,LP (%) (10 mM),[6],83 ± 1.1%
same,"viability at 48 h, 2.4 µM",[7],98 ± 10.7%
same,"viability at 48 h, 24 µM",[7],86 ± 5.5%
same,"viability at 48 h, 240 µM",[7],79 ± 8.2%
"O=C1c2cccc(NCc3ccccc3)c2C(=O)c2cccc(NCc3ccccc3)c21 [IVr, 1,5-Bis(benzylamino)-anthraquinone]",IC50,[1],> 20 µM
same,IC50,[8],> 20 µM
same,IC50,[4],> 20 µM
same,melting point,,218 to 220 °C
"O=C1c2c(O)ccc(O)c2C(=O)c2c(NCCNCCO)ccc(NCCNCCO)c21 [Mitoxantrone, reference compound]",IC50,[1],2 ± 0.5 µM
same,activity at 1.9 µM,[2],30 ± 5.8%
same,activity at 19 µM,[2],13 ± 9.2%
same,activity at 193 µM,[2]; 193 μM,4 ± 14.2%
same,"viability at 48 h, 1.9 µM",[3],100 ± 5.6%
same,"viability at 48 h, 19 µM",[3],57 ± 4.3%
same,"viability at 48 h, 193 µM",[3],39 ± 3.2%
same,IC50,[8],0.4 µM
same,IC50,[4],0.07 ± 0.01 µM
same,SEAP/vibility,"[5]; 1.9 μM, PhTERT-SEAP(hTERT-H1299)",0.82
same,SEAP/vibility,"[5]; 19 μM, PhTERT-SEAP(hTERT-H1299)",1.16
same,SEAP/vibility,"[5]; 193 μM, PhTERT-SEAP(hTERT-H1299)",1.21
same,activity at 1.9 µM,"[5]; Homo sapiens, NCI-H1299, 1.9 μM, PhTERT-SEAP(hTERT-H1299), read-out: Relative SEAP activity (%)",81 ± 3.8%
same,activity at 19 µM,"[5]; Homo sapiens, NCI-H1299, 19 μM, PhTERT-SEAP(hTERT-H1299), read-out: Relative SEAP activity (%)",66 ± 4%
same,activity at 193 µM,"[5]; Homo sapiens, NCI-H1299, 193 μM, PhTERT-SEAP(hTERT-H1299), read-out: Relative SEAP activity (%)",47 ± 3.9%
same,Inhibition of LP(10 mM),[6],>100%
same,LP (%) (10 mM),[6],54 ± 1.5%
same,"viability at 48 h, 1.9 µM",[7],75 ± 2.9%
same,"viability at 48 h, 19 µM",[7],56 ± 3.1%
same,"viability at 48 h, 193 µM",[7],10 ± 2%
"NCCCCCNc1cccc2c1C(=O)c1c(NCCCCCN)cccc1C2=O [Vm, 1,8-Bis(aminopentylamino)-anthraquinone]",IC50,[1],0.09 µM
same,IC50,[8],1.29 µM
same,IC50,[4],0.11 ± 0.01 µM
same,melting point,,115 to 116 °C
"CCCCNc1cccc2c1C(=O)c1cccc(NCCCC)c1C2=O [IVg, 1,5-Bis(butylamino)anthraquinone]",melting point,,152 to 153 °C
"CCCCCCNc1cccc2c1C(=O)c1cccc(NCCCCCC)c1C2=O [IVn, 1,5-Bis(hexylamino)-anthraquinone]",melting point,,142 to 144 °C
"O=C1c2cccc(SCCO)c2C(=O)c2cccc(SCCO)c21 [IIb, 1,5-Bis(hydroxyethylthio)-anthraquinone]",IC50,[1],36.4 ± 1.5 µM
same,activity at 2.8 µM,[2]; 2.8 μM,104 ± 15.7%
same,activity at 28 µM,[2]; 28 μM,98 ± 10.9%
same,activity at 280 µM,[2]; 280 μM,71 ± 5%
same,"viability at 48 h, 2.8 µM",[3],54 ± 4%
same,"viability at 48 h, 28 µM",[3],29 ± 7%
same,"viability at 48 h, 280 µM",[3],36 ± 7.2%
same,IC50,[4],21.5 ± 0.8 µM
same,activity at 2.8 µM,"[5]; Homo sapiens, NCI-H1299, 2.8 μM, H1299, read-out: Relative SEAP activity (%)",97 ± 15.7%
same,activity at 28 µM,"[5]; Homo sapiens, NCI-H1299, 28 μM, H1299, read-out: Relative SEAP activity (%)",76 ± 12.4%
same,activity at 280 µM,"[5]; Homo sapiens, NCI-H1299, 280 μM, H1299, read-out: Relative SEAP activity (%)",45 ± 2.7%
same,LP (%) (10 mM),[6],16 ± 2.2%
same,"viability at 48 h, 2.8 µM",[7],94 ± 9.3%
same,"viability at 48 h, 28 µM",[7],49 ± 2.9%
same,"viability at 48 h, 280 µM",[7],23 ± 2.9%
O=C(Oc1cccc2c1C(=O)c1cccc(OC(=O)c3ccc(Cl)cc3)c1C2=O)c1ccc(Cl)cc1,IC50,[1],48.1 ± 4.5 µM
same,activity at 1.9 µM,[2],136 ± 5.7%
same,activity at 19 µM,[2],123 ± 6.2%
same,activity at 190 µM,[2],107 ± 6%
same,"viability at 48 h, 1.9 µM",[3],91 ± 10%
same,"viability at 48 h, 19 µM",[3],57 ± 1.8%
same,"viability at 48 h, 190 µM",[3],31 ± 1%
same,IC50,[4],38.6 ± 3.5 µM
same,activity at 1.9 µM,[5]; [9],106 ± 4.5%
same,activity at 19 µM,[5]; [10],106 ± 4.9%
same,activity at 190 µM,[5]; [11],97 ± 4.9%
same,Inhibition of LP(10 mM),[6],2 ± 0.2%
same,"viability at 48 h, 1.9 µM",[7]; [12],111 ± 6.5%
same,"viability at 48 h, 19 µM",[7]; [12],89 ± 14.3%
same,"viability at 48 h, 190 µM",[7]; [12],48 ± 9%
"O=C1c2cccc(SCCC(O)O)c2C(=O)c2cccc(SCCC(O)O)c21 [IId, 1,5-Bis(dihydroxypropylthio)-anthraquinone]",melting point,,238 to 239 °C
O=C(Oc1cccc2c1C(=O)c1cccc(OC(=O)c3cccc(Cl)c3)c1C2=O)c1cccc(Cl)c1,IC50,[1],15.1 ± 1.9 µM
same,activity at 1.9 µM,[2],154 ± 23%
same,activity at 19 µM,[2],152 ± 15.8%
same,activity at 190 µM,[2],91 ± 25.2%
same,"viability at 48 h, 1.9 µM",[3],98 ± 3.9%
same,"viability at 48 h, 19 µM",[3],88 ± 7.2%
same,"viability at 48 h, 190 µM",[3],46 ± 3.5%
same,IC50,[4],25.1 ± 2.8 µM
same,activity at 1.9 µM,[5]; [9],83 ± 5.7%
same,activity at 19 µM,[5]; [10],92 ± 8.1%
same,activity at 190 µM,[5]; [11],81 ± 2.5%
same,Inhibition of LP(10 mM),[6],1 ± 0.1%
same,"viability at 48 h, 1.9 µM",[7]; [12],101 ± 2.3%
same,"viability at 48 h, 19 µM",[7]; [12],80 ± 6.7%
same,"viability at 48 h, 190 µM",[7]; [12],44 ± 6%
"CC1CCCC(Nc2cccc3c2C(=O)c2cccc(NC4CCCC(C)C4C)c2C3=O)C1C (stereo not shown) [IVp, 1,5-Bis(2,3-dimethylcyclohexylamino)-anthraquinone]",melting point,,188 to 190 °C
"CCC(=O)Nc1cccc2c1C(=O)c1cccc(NC(=O)CC)c1C2=O [VIIb, 1,5-bis-(methylacetamido)-9,10-anthracenedione]",melting point,,321 °C
"NCCCCCNc1cccc2c1C(=O)c1cccc(NCCCCCN)c1C2=O [IVm, 1,5-Bis(aminopentylamino)-anthraquinone]",IC50,[1],17.4 ± 0.74 µM
same,IC50,[8],> 20 µM
same,IC50,[4],8.36 µM
same,melting point,,113 to 115 °C
"CC(Cl)C(=O)Nc1cccc2c1C(=O)c1cccc(NC(=O)C(C)Cl)c1C2=O (stereo not shown) [VIId, 1,5-bis-(2-chloropropionamido)-9,10-anthracenedione]",melting point,,288 to 289 °C
"NCCCCNc1cccc2c1C(=O)c1cccc(NCCCCN)c1C2=O [IVl, 1,5-Bis(aminobutylamino)-anthraquinone]",melting point,,208 to 210 °C
"O=C1c2cccc(NC3CCCC3)c2C(=O)c2cccc(NC3CCCC3)c21 [IVi, 1,5-Bis(cyclopentylamino)anthraquinone]",melting point,,198 to 201 °C
